From article PMC8496750, “Identification of the organic anion transporting polypeptides responsible for the hepatic uptake of the major metabolite of epyrifenacil, S‐3100‐CA, in mice” (Pharmacology Research & Perspectives, 2021)

Legend:
mouse Oatp1b2 = biological target: T1, mouse Oatp1b2 (Mus musculus, UniProt Q9JJL3); assay: Inhibition of S‐3100‐CA uptake by OATP inhibitors, mouse Oatp1b2; type: in vitro ADME; set-up: expressed in transfected cells; host or cells: 293FT cells; conditions: inhibitor at 100 μM
T1 sequence (Q9JJL3 1-689): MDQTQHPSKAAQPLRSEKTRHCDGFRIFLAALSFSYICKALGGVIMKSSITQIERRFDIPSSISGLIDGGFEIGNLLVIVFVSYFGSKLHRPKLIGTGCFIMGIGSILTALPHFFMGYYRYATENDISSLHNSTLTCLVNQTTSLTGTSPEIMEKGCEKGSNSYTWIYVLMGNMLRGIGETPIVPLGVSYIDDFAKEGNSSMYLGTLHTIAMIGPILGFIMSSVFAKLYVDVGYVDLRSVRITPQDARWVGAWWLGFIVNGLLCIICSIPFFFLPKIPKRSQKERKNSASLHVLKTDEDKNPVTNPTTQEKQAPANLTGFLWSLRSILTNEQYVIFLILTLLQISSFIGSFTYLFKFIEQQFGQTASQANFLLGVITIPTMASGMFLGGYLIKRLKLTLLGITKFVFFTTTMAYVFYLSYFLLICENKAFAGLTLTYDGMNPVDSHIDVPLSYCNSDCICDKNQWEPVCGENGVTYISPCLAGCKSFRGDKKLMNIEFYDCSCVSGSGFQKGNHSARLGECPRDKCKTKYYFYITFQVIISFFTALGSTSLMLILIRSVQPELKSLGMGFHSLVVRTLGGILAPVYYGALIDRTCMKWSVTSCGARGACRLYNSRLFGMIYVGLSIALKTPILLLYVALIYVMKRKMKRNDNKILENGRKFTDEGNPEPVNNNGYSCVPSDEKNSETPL
Description: (§1) 293FT cells were purchased from Thermo Fisher Scientific, Inc.. The cells were grown in Dulbecco's modified Eagle medium (supplemented with 4.5 g/L glucose and 2 mM L‐glutamine) at 37°C, 5% CO2, and 95% humidity. The cells were passaged 3 times per week by harvesting cells using trypsin and plating at a density of 1.0 × 10^4 cells/cm^2 in a 10 cm cell culture plate for maintenance culture. The 293FT cells were detached using trypsin and re‐seeded at a density of 2.5 × 10^4 cells/cm^2 in BioCoat™ Collagen I 6‐well plates (Corning Inc.) for transfection and then treated with 1.2 μg of plasmid vector and 3.2 μl of Lipofectamine™ 2000 Transfection Reagent (Thermo Fisher Scientific, Inc.) according to the manufacturer's instructions. After a 3‐h treatment, the transfection medium was replaced with a fresh cell culture medium and incubated at 37°C with 95% humidity and 5% CO2 until ready for the assay.
(§2) Transport experiments were conducted approximately 24 h post‐transfection. […] From the lysate, 1.0 ml was transferred to a vial containing 10 ml of Emulsifier Scintillator Plus to measure the radioactivity in the LSC. The protein concentration of the cell lysate was also measured using a Pierce™ BCA Protein Assay Kit (Thermo Fisher Scientific, Inc.), which was used to normalize, according to the cell number, the radioactivity in the cell lysate extract. […]

human OATP1B3 = biological target: T2, human OATP1B3 (Homo sapiens, UniProt Q9NPD5); assay: Inhibition of S‐3100‐CA uptake by OATP inhibitors, human OATP1B3; type: in vitro ADME; conditions: inhibitor at 100 μM
T2 construct: expressed in transfected cells; host or cells: 293FT cells
T2 sequence (Q9NPD5 1-702): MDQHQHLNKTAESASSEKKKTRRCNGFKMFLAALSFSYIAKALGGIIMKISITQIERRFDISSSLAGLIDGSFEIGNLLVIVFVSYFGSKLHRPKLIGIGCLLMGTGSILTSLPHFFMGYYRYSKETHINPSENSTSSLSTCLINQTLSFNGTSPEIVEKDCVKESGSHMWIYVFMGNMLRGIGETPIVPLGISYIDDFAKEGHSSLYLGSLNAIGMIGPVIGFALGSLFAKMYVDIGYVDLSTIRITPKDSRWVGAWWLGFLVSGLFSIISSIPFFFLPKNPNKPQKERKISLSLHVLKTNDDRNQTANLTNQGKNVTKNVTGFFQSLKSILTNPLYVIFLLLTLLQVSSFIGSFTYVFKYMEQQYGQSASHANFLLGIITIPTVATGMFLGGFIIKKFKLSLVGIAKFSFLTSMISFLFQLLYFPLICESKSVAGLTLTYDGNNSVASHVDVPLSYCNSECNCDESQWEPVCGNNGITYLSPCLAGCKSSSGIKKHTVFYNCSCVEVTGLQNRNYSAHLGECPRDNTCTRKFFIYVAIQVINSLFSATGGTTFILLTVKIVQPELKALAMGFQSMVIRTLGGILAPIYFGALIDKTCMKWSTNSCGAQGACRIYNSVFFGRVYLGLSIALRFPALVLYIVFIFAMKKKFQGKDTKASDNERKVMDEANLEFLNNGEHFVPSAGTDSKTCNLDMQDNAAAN
Description: as §1, §2

hepatocytes = system: hepatocytes; set-up: method as in PMID 34908893; conditions: mouse vs human hepatocytes; cited from earlier work
mitochondrial PPO = system: mitochondrial PPO; set-up: method as in PMID 34908893; conditions: cited from earlier work

Row | Structure (SMILES) | Uptake of S‐3100‐CA, % of that by vehicle‐treated cells (mouse Oatp1b2) | Uptake of S‐3100‐CA, % of that by vehicle‐treated cells (human OATP1B3) | Amount taken up by mouse hepatocytes relative to human hepatocytes (hepatocytes) | PPO inhibitory activity (in words) (mitochondrial PPO; PPO inhibition study) | Inhibitory activity against mitochondrial PPO, mice relative to humans (mitochondrial PPO; higher in mice than in humans) [times]
1 | CO[C@H]1/C=C/O[C@@]2(C)Oc3c(C)c(O)c4c(O)c(c(/C=N/N5CCN(C)CC5)c(O)c4c3C2=O)NC(=O)/C(C)=C\C=C\[C@H](C)[C@H](O)[C@@H](C)[C@@H](O)[C@@H](C)[C@H](OC(C)=O)[C@@H]1C [RIF, Rifampicin] | less than 40% | less than 40% |  |  | 
2 | Cn1c(C(F)(F)F)cc(=O)n(-c2cc(Oc3cccnc3OCC(=O)O)c(Cl)cc2F)c1=O [S‐3100‐CA] |  |  | 6–13 times | comparable inhibitory activity to that of the parent epyrifenacil | 10
